Data from ChEMBL document CHEMBL1140618, “3D-QSAR and molecular docking studies on benzothiazole derivatives as Candida albicans N-myristoyltransferase inhibitors” (Eur J Med Chem, 2007).

Biological target: T1, Glycylpeptide N-tetradecanoyltransferase (Candida albicans (strain SC5314 / ATCC MYA-2876) (Yeast), UniProt P30418)
T1 sequence (P30418 whole entry): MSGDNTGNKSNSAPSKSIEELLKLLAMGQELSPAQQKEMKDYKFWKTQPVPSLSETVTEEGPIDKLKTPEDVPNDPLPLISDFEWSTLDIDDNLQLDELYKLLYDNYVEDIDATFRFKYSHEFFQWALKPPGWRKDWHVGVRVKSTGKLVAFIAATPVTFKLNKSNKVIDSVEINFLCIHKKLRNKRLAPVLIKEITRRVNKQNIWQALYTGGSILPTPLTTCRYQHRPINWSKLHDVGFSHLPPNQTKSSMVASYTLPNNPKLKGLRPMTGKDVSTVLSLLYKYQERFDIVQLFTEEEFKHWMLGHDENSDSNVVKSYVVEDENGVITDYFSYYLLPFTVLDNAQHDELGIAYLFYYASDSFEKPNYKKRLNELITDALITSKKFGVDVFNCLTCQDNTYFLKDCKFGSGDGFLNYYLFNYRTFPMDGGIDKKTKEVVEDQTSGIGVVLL
Experiment: Inhibition of Candida albicans N-myristoyltransferse

Row | IC50 | SMILES
1 | 0.39 nM | Cc1ccc(C(=O)c2oc3cccc(OCCCNCc4cccnc4)c3c2C)nc1
2 | > 10000 nM | O=C(NCc1ccc(CNCc2ccc3ccccc3c2)cc1)c1ccc2nc(NC(=O)C3CCCCC3)sc2c1
3 | 65 nM | O=C(Nc1nc2ccc(C(=O)N3CC(NCc4ccc5ccccc5c4)C3)cc2s1)C1CCCCC1
4 | 190 nM | O=C(Nc1nc2ccc(C(=O)N3CCC(NCc4ccc5ccccc5c4)C3)cc2s1)C1CCCCC1 (stereo unspecified)
5 | 500 nM | O=C(Nc1nc2ccc(C(=O)N3CCC(NCc4ccc5ccccc5c4)CC3)cc2s1)C1CCCCC1
6 | 1900 nM | O=C(NCc1cccc(CNCc2ccc3ccccc3c2)c1)c1ccc2nc(NC(=O)C3CCCCC3)sc2c1
7 | 26 nM | O=C(Nc1nc2ccc(C(=O)N3CCC(CNCc4ccc5ccccc5c4)CC3)cc2s1)C1CCCCC1
8 | 210 nM | O=C(Nc1nc2ccc(C(=O)N3CCCC(NCc4ccc5ccccc5c4)C3)cc2s1)C1CCCCC1 (stereo unspecified)
9 | 2300 nM | O=C(CNCc1ccc2ccccc2c1)Nc1ccc2nc(NC(=O)C3CCCCC3)sc2c1
10 | > 10000 nM | O=C(NCCNCc1ccc2ccccc2c1)c1ccc2ncsc2c1
11 | > 10000 nM | Nc1nc2ccc(C(=O)NCCNCc3ccc4ccccc4c3)cc2s1
12 | > 10000 nM | O=C(NCCNCc1ccc2ccccc2c1)c1ccc2nc(NCc3ccccc3)sc2c1
13 | > 10000 nM | O=C(NCCNCc1ccc2ccccc2c1)c1ccc2nc(NCc3ccccn3)sc2c1
14 | > 1000 nM | O=C(NCCNCc1ccc2ccccc2c1)c1ccc2nc(NCC3CCCCC3)sc2c1
15 | > 10000 nM | CC(=O)Nc1nc2ccc(C(=O)NCCNCc3ccc4ccccc4c3)cc2s1
16 | 130 nM | CCC(=O)Nc1nc2ccc(C(=O)NCCNCc3ccc4ccccc4c3)cc2s1
17 | 46 nM | CC(C)C(=O)Nc1nc2ccc(C(=O)NCCNCc3ccc4ccccc4c3)cc2s1
18 | 23 nM | O=C(NCCNCc1ccc2ccccc2c1)c1ccc2nc(NC(=O)C3CCCC3)sc2c1
19 | 890 nM | O=C(NCCNCc1ccc2ccccc2c1)c1ccc2nc(NC(=O)C3CCOCC3)sc2c1
20 | > 10000 nM | O=C(NCCNCc1ccc2ccccc2c1)c1ccc2nc(NC(=O)C3CCNCC3)sc2c1
21 | 160 nM | O=C(NCCNCc1ccc2ccccc2c1)c1ccc2nc(NC(=O)c3ccccc3)sc2c1
22 | > 10000 nM | O=C(NCCNCc1ccc2ccccc2c1)c1ccc2nc(NC(=O)c3ccccn3)sc2c1
23 | 730 nM | O=C(NCCNCc1ccc2ccccc2c1)c1ccc2nc(NC(=O)c3cnccn3)sc2c1

Row | IC50 | SMILES
24 | 34 nM | O=C(NCCNCc1ccc2ccccc2c1)c1ccc2nc(NC(=O)C3CCCCC3)sc2c1
25 | 110 nM | O=C(NCCCNCc1ccc2ccccc2c1)c1ccc2nc(NC(=O)C3CCCCC3)sc2c1
26 | 74 nM | O=C(NCCCCNCc1ccc2ccccc2c1)c1ccc2nc(NC(=O)C3CCCCC3)sc2c1
27 | > 10000 nM | O=C(NCCNCc1ccc2ccccc2c1)c1ccc2nc(NC(=O)c3ccc(Cl)cc3)sc2c1
28 | > 10000 nM | O=C(NCCNCc1ccc2ccccc2c1)c1ccc2nc(NC(=O)c3ccc(Cl)c(Cl)c3)sc2c1
29 | > 10000 nM | O=C(NCCNCc1ccc2ccccc2c1)c1ccc2nc(NC(=O)c3ccc(C(F)(F)F)cc3)sc2c1
30 | 310 nM | COc1ccc(OC)c(C(=O)Nc2nc3ccc(C(=O)NCCNCc4ccc5ccccc5c4)cc3s2)c1
31 | 160 nM | O=C(CCNCc1ccc(-c2ccccc2)cc1)Nc1ccc2nc(NC(=O)C3CCCC3)sc2c1
32 | 11 nM | O=C(Nc1nc2ccc(NC(=O)[C@@H]3CC[C@H](NCc4ccc5ccccc5c4)C3)cc2s1)C1CCCC1
33 | 130 nM | O=C(Nc1ccc2nc(NC(=O)C3CCCC3)sc2c1)C1CCCC(NCc2ccc(-c3ccccc3)cc2)C1 (stereo unspecified)
34 | 0.49 nM | O=C(Nc1nc2ccc(NC(=O)[C@H]3CCC[C@@H](NCc4ccc5ccccc5c4)C3)cc2s1)C1CCCC1
35 | 3.3 nM | CC(C)C(=O)Nc1nc2ccc(NC(=O)C3CCCC(NCc4ccc5ccccc5c4)C3)cc2s1 (stereo unspecified)
36 | 2.3 nM | O=C(Nc1ccc2nc(NC(=O)C3CCC3)sc2c1)C1CCCC(NCc2ccc3ccccc3c2)C1 (stereo unspecified)
37 | 34 nM | O=C(Nc1ccc2nc(NC(=O)C3CCCC3)sc2c1)C1CCC(NCc2ccc3ccccc3c2)CC1 (stereo unspecified)
38 | 5.7 nM | Cc1c(COc2ccc(F)c(F)c2F)oc2cccc(OCCCNCc3cccnc3)c12
39 | > 10000 nM | O=C(NCCNCc1ccc2ccccc2c1)c1ccc2nc(NC(=O)c3cccnc3Cl)sc2c1
40 | 15 nM | O=C(CCCNCc1ccc2ccccc2c1)Nc1ccc2nc(NC(=O)C3CCCC3)sc2c1
41 | 2.4 nM | O=C(Nc1ccc2nc(NC(=O)C3CC3)sc2c1)C1CCCC(NCc2ccc3ccccc3c2)C1 (stereo unspecified)
42 | 8.1 nM | O=C(Nc1ccc2nc(NC(=O)C3CCCCC3)sc2c1)C1CCCC(NCc2ccc3ccccc3c2)C1 (stereo unspecified)
43 | > 10000 nM | CC(C)(C)OC(=O)Nc1nc2ccc(C(=O)NCCNCc3ccc4ccccc4c3)cc2s1
44 | 28 nM | O=C(NCCNCc1ccc2ccccc2c1)c1ccc2nc(NC(=O)C3CCC3)sc2c1
45 | 300 nM | O=C(NCCCCCNCc1ccc2ccccc2c1)c1ccc2nc(NC(=O)C3CCCCC3)sc2c1
46 | 1700 nM | CCOC(=O)c1oc2cccc(OCCCNC(C)(C)C)c2c1C
